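Results reflect a 48-hour exposure of cells in 96-well plates to compound at five concentrations. TGI: total growth inhibition.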
Tests used:
Experiment in all cases: NCI tumour cell line growth inhibition, 48 h
[1] = tested on: CAKI-1 renal
[2] = tested on: HL-60(TB) leukemia
[3] = tested on: MOLT-4 leukemia
[4] = tested on: SF-539 CNS
[5] = tested on: UACC-62 melanoma
[6] = tested on: SW-620 colon
[7] = tested on: A549 NSCLC
[8] = tested on: M19-MEL melanoma
[9] = tested on: SN12C renal
[10] = tested on: SK-MEL-28 melanoma
[11] = tested on: RXF 393 renal
[12] = tested on: ACHN renal
[13] = tested on: SK-MEL-5 melanoma
[14] = tested on: OVCAR-4 ovarian
[15] = tested on: XF 498 CNS
[16] = tested on: RPMI-8226 leukemia
[17] = tested on: KM12 colon
[18] = tested on: U251 CNS
[19] = tested on: HCC-2998 colon
[20] = tested on: OVCAR-3 ovarian
[21] = tested on: HOP-92 NSCLC
[22] = tested on: MALME-3M melanoma
[23] = tested on: NCI-H226 lung
[24] = tested on: SNB-75 CNS
[25] = tested on: M14 melanoma
[26] = tested on: SK-OV-3 ovarian
[27] = tested on: TK-10 renal
[28] = tested on: CCRF-CEM leukemia
[29] = tested on: DMS 273 small cell lung
[30] = tested on: HT29 colon
[31] = tested on: NCI-H522 lung
[32] = tested on: UACC-257 melanoma
[33] = tested on: KM20L2 colon
[34] = tested on: NCI-H460 lung
[35] = tested on: OVCAR-8 ovarian
[36] = tested on: 786-0 renal
[37] = tested on: HOP-62 NSCLC
[38] = tested on: SF-295 CNS
[39] = tested on: HCT-15 colon
[40] = tested on: OVCAR-5 ovarian
[41] = tested on: SNB-19 CNS
[42] = tested on: HCT-116 colon
[43] = tested on: SR leukemia
[44] = tested on: UO-31 renal
[45] = tested on: EKVX NSCLC
[46] = tested on: NCI-H23 lung
[47] = tested on: K-562 leukemia
[48] = tested on: SK-MEL-2 melanoma
[49] = tested on: DLD-1 colon
[50] = tested on: DMS 114 small cell lung
[51] = tested on: HOP-18 NSCLC
[52] = tested on: IGROV1 ovarian
[53] = tested on: SF-268 CNS
[54] = tested on: COLO 205 colon
[55] = tested on: LXFL 529 NSCLC
[56] = tested on: LOX IMVI melanoma
[57] = tested on: A498 renal
[58] = tested on: SNB-78 CNS

Measured: TGI

COc1ccc2c3c([nH]c2c1CC=C(C)C)C(=O)C=C(C)C3=O
not listed: [56] | [57] | [58]
> 25 µM: all other assays above

CCCCCC(=O)OCCOCCOCCOCCOCCOCc1ccccc1
not listed: [2] | [3] | [8] | [16] | [19] | [24] | [25] | [26] | [28] | [30] | [31] | [43] | [44] | [47] | [55]
> 100 µM: all other assays above

CC(NS(=O)(=O)c1ccc(Cl)cc1)C(=O)O (centres undefined)
not listed: [19] | [23] | [37] | [42] | [43] | [50] | [58]
> 100 µM: all other assays above
